Tested on: anti-EDDP antibody
Experiment: Assay for EDDP analyte: homogeneous enzyme immunoassay with G6PDH-product of Step 14-SH-Step 14 conjugate, absorbance at 340 nm
Format: binding
Conditions: 1 min after enzyme conjugate addition, Tris buffer pH 7.8
Experimental: The experiments were conducted on an AGILENT® 8453 UV spectrophotometer (Agilent Technologies, Santa Clara Calif.). Typically, 2.5 mL Tris buffer (50 mM, containing 3.3 mM MgCl2, pH 7.8), 0.2 ml anti-EDDP antibody (1 mg/mL, commercially available from Lin Zhi International Inc. Sunnyvale Calif.), 0.1 mL glucose-6-phosphate (0.1 M), 0.1 mL NADP (0.006M) were taken in a quartz cuvette. To this, 0-4029 ng/mL EDDP in 10 μL methanol was added and mixed well. Then, 10 μL G6PDH-product of Step 14-SH-Step 14 (1 mg/mL) was added and mixed well. Increase in the absorbance at 340 nm was monitored at 1 min after the enzyme addition.

In the case of `CC=C1N(C)C(C)CC1(c1ccccc1)c1ccccc1` (stereo not drawn) [EDDP, 2-ethylidene-1,5-dimethyl-3,3-diphenylpyrrolidine], the “mAu 340 nm (increase in the absorbance at 340 nm)” value (EDDP 370 ng/mL) is reported as 456 mAu, the “mAu 340 nm (increase in the absorbance at 340 nm)” value (EDDP 1221 ng/mL) is reported as 497 mAu and the “mAu 340 nm (increase in the absorbance at 340 nm)” value (EDDP 4029 ng/mL) is reported as 561 mAu.
